Species on record: Rattus norvegicus
Test: DrugMatrix - Regimen: Daily Repeat
Format: toxicity, organism-based, Sprague-Dawley
Set-up: regimen Daily Repeat, gender Male, age 6-8 weeks
Conditions: in vivo, po, 1500 mg/kg, route oral GAVAGE, dose level High, vehicle 100 % WATER; for ABSOLUTE BASOPHIL / ABSOLUTE EOSINOPHIL / ABSOLUTE LYMPHOCYTE / ABSOLUTE MONOCYTE / ABSOLUTE SEGMENTED NEUTROPHIL / BASOPHIL / EOSINOPHIL / ERYTHROCYTE COUNT / HEMATOCRIT / HEMOGLOBIN / LEUKOCYTE COUNT / LYMPHOCYTE / MEAN CORPUSCULAR HEMOGLOBIN / MEAN CORPUSCULAR HEMOGLOBIN CONCENTRATION / MEAN CORPUSCULAR VOLUME / MONOCYTE / NEUTROPHIL / NUCLEATED RED BLOOD CELLS / PLATELET COUNT: tissue Blood; for ALANINE AMINOTRANSFERASE / ALBUMIN / ALKALINE PHOSPHATASE / ASPARTATE AMINOTRANSFERASE / BLOOD UREA NITROGEN / CARBON DIOXIDE / CHLORIDE / CHOLESTEROL / CREATINE PHOSPHOKINASE / CREATININE / GLUCOSE / LACTATE DEHYDROGENASE / LIPASE / PHOSPHORUS / POTASSIUM / SODIUM / TOTAL BILIRUBIN / TOTAL PROTEIN / URIC ACID: tissue Plasma

## CNCCc1ccccn1 [BETAHISTINE]
72 h, time 3 day
  ABSOLUTE BASOPHIL: 0 CELLS/uL
  ABSOLUTE EOSINOPHIL: 56.67 CELLS/uL
  ABSOLUTE LYMPHOCYTE: 8977.33 CELLS/uL
  ABSOLUTE MONOCYTE: 168 CELLS/uL
  ABSOLUTE SEGMENTED NEUTROPHIL: 798 CELLS/uL
  BASOPHIL: 0%
  EOSINOPHIL: 0.67%
  ERYTHROCYTE COUNT: 5.37 x10E6/uL
  HEMATOCRIT: 33.67%
  HEMOGLOBIN: 12.53 G/DL
  LEUKOCYTE COUNT: 10 x10E3/uL
  LYMPHOCYTE: 89.67%
  MEAN CORPUSCULAR HEMOGLOBIN: 23.37 pg
  MEAN CORPUSCULAR HEMOGLOBIN CONCENTRATION: 37.27 G/DL
  MEAN CORPUSCULAR VOLUME: 62.73 fL
  MONOCYTE: 1.67%
  NEUTROPHIL: 8%
  NUCLEATED RED BLOOD CELLS: 0 /100WBC
  PLATELET COUNT: 1427.33 x10E3/uL
  ALANINE AMINOTRANSFERASE: 50 u/L
  ALBUMIN: 4.53 G/DL
  ALKALINE PHOSPHATASE: 288.67 u/L
  ASPARTATE AMINOTRANSFERASE: 71.67 u/L
  BLOOD UREA NITROGEN: 14.33 mg/dL
  CARBON DIOXIDE: 28.33 mmol/L
  CHLORIDE: 105.67 MEQ/L
  CHOLESTEROL: 76.33 mg/dL
  CREATINE PHOSPHOKINASE: 148.67 u/L
  CREATININE: 0.19 mg/dL
  GLUCOSE: 141 mg/dL
  LACTATE DEHYDROGENASE: 118 u/L
  LIPASE: 15.67 u/L
  PHOSPHORUS: 12.33 mg/dL
  POTASSIUM: 6.21 MEQ/L
  SODIUM: 150.8 MEQ/L
  TOTAL BILIRUBIN: 0.2 mg/dL
  TOTAL PROTEIN: 6.07 G/DL
  URIC ACID: 0.87 mg/dL
120 h, time 5 day
  ABSOLUTE BASOPHIL: 0 CELLS/uL
  ABSOLUTE EOSINOPHIL: 0 CELLS/uL
  ABSOLUTE LYMPHOCYTE: 10659 CELLS/uL
  ABSOLUTE MONOCYTE: 37.33 CELLS/uL
  ABSOLUTE SEGMENTED NEUTROPHIL: 870.33 CELLS/uL
  BASOPHIL: 0%
  EOSINOPHIL: 0%
  ERYTHROCYTE COUNT: 5.91 x10E6/uL
  HEMATOCRIT: 36.13%
  HEMOGLOBIN: 13.33 G/DL
  LEUKOCYTE COUNT: 11.57 x10E3/uL
  LYMPHOCYTE: 92%
  MEAN CORPUSCULAR HEMOGLOBIN: 22.63 pg
  MEAN CORPUSCULAR HEMOGLOBIN CONCENTRATION: 36.93 G/DL
  MEAN CORPUSCULAR VOLUME: 61.27 fL
  MONOCYTE: 0.33%
  NEUTROPHIL: 7.67%
  NUCLEATED RED BLOOD CELLS: 0 /100WBC
  PLATELET COUNT: 1404.67 x10E3/uL
  ALANINE AMINOTRANSFERASE: 60.67 u/L
  ALBUMIN: 4.2 G/DL
  ALKALINE PHOSPHATASE: 406.33 u/L
  ASPARTATE AMINOTRANSFERASE: 75.67 u/L
  BLOOD UREA NITROGEN: 14 mg/dL
  CARBON DIOXIDE: 25.33 mmol/L
  CHLORIDE: 105.33 MEQ/L
  CHOLESTEROL: 59 mg/dL
  CREATINE PHOSPHOKINASE: 153 u/L
  CREATININE: 0.19 mg/dL
  GLUCOSE: 171 mg/dL
  LACTATE DEHYDROGENASE: 64 u/L
  LIPASE: 8 u/L
  PHOSPHORUS: 13.97 mg/dL
  POTASSIUM: 5.7 MEQ/L
  SODIUM: 146.6 MEQ/L
  TOTAL BILIRUBIN: 0.27 mg/dL
  TOTAL PROTEIN: 5.9 G/DL
  URIC ACID: 2.07 mg/dL
